The source of these data is patent US20250084026A1, “NOVEL SALT OF 1-SULFONYL PYRROLE DERIVATIVE, PREPARATION METHOD THEREOF AND PHARMACEUTICAL COMPOSITION COMPRISING THEREOF” (ILDONG PHARMACEUTICAL CO., LTD., priority 2021, published 2025).

In brackets after ≈: the same amount, converted by molar mass. Where two headings read alike, the source gives them in different places. Where only a bound is given, the exact number is not on record here.

Common to all, as to type: physicochemical
Data set [1] is described as follows: Drug stability under stress condition, 60° C. open, XRPD and HPLC. To be noted: for HPLC peak RT 7.423 min, RRT 0.74 / HPLC peak RT 10.063 min, RRT 1.00 / HPLC peak RT 10.277 min, RRT 1.02: in %; for Stability under harsh conditions (in words): up to Week 2. Here is the method: 10 mg and 40 mg of the free base and the fumaric acid salt of 1-(5-(2-fluorophenyl)-4-methoxy-1-((6-methoxypyridin-3-yl) sulfonyl)-1H-pyrrol-3-yl)-N-methylmethanamine were weighed into each vial and stored under stress conditions to investigate stability.
The stress conditions are as follows: • high temperature open room condition: 60° C.; • The bottle neck of the vial was wrapped with aluminum foil with pinholes to avoid contamination, and the samples were analyzed by XRPD and HPLC at the onset (Day 0), week 1 and week 2.

Data set [2] is described as follows: Solubility in bio-relevant media (water, SGF, FaSSIF, FeSSIF), HPLC. To be noted: for solubility at 1 h / solubility at 24 h: thermodynamic from solid; for solubility at 1 h: read-out: Solubility-1 h concentration; for solubility at 24 h: read-out: Solubility-24 h concentration. Here is the method: Solubility in bio-relevant media, i.e., stimulated gastric fluid (SGF), fasted state simulated intestinal fluid (FaSSIF), and fed state simulated intestinal fluid (FeSSIF) of the free base and the fumarate salt of 1-(5-(2-fluorophenyl)-4-methoxy-1-((6-methoxypyridin-3-yl) sulfonyl)-1H-pyrrole-3-yl)-N-methylmethanamine that was confirmed through the salt screening analysis result, was confirmed.
Buffers for the bio-relevant media were prepared as follows. • Water: Laboratory Milli-Q purified water. • SGF (Stimulated Gastric Fluid): 2.0 g of sodium chloride and 7 mL of hydrochloric acid dissolved in 1000 ml of water was used. • FaSSIF (Fasted State Simulated Intestinal Fluid): A commercial product purchased from Bio-Relevant Company and manufactured according to instructions was used. • FeSSIF (Fed State Simulated Intestinal Fluid): A commercial product purchased from Bio-Relevant Company and prepared according to instructions was used.
For the experiment, about 10 mg of compound (10 mg as free base form) was weighed into each glass vial and then 1 mL of medium was added (final concentration of 10 mg/mL). Then, the sample was continuously stirred in a magnetic stirrer at 37° C. at a speed of 200 rpm. After stirring for 1 hour and 24 hours, 0.5 mL of the sample solution was transferred to a 1.5 mL centrifuge tube and centrifuged at 12,000 rpm for 5 minutes. The supernatant was diluted with suitable methanol and analyzed by HPLC.
The free base was selected as a standard sample to quantify the solubility, and about 10 mg of the free base was weighed into a 25 mL flask and dissolved in methanol to the curve.
The residue of the compound in water was tested by XRPD to determine the solid state.

A short description of data set [3]: Thermal gravimetric analysis (TGA) weight loss. How it is done:
Using Pyris 1 TGA manufactured by PerkinElmer, Inc., a compound sample (about 5 mg) was weighed in pans under nitrogen purge at a ramp rate of 20° C./min over the range of 30 to 300° C.

A short description of data set [4]: Drug stability at 40° C., 75% RH for 8 weeks (XRPD, TGA, HPLC). How it is done: In order to confirm the stability of the fumarate salt of 1-(5-(2-fluorophenyl)-4-methoxy-1-((6-methoxypyridin-3-yl) sulfonyl)-1H-pyrrole-3-yl)-N-methylmethanamine prepared under an isopropyl alcohol solvent, water sorption and/or hydrate formation were confirmed under conditions of 75% RH at 40° C. for 8 weeks.
To proceed with the experiment, 100 mg of the fumarate salt of 1-(5-(2-fluorophenyl)-4-methoxy-1-((6-methoxypyridin-3-yl) sulfonyl)-1H-pyrrole-3-yl)-N-methylmethanamine was put in a vial with a wide mouth (Experimental group 1), and the other sample was put in a vial that is double-packed with a polyethylene bag (Experimental group 2). Then, both samples were placed inside a 40° C., 75% RH chamber and monitored at 2-week intervals.
The XRPD values were checked every two weeks to identify whether or not there was a change in the crystalline form, and the results are shown in Table 11.

Data set [5] can be described thus: Dynamic vapor sorption (DVS) hygroscopicity. Particulars: 25° C., 0%~95%~0% RH cycle; compared to the known hygroscopicity evaluation standard. Here is the method: Using DVS intrinsic manufactured by Surface Measurement Systems Ltd, about 20 mg of the sample was tested for water sorption/desorption profiles at 25° C. under a 0%˜95%˜0% relative humidity (RH) cycle using the following parameters.
Equilibrium: dm/dt: 0.01%/min.
Range of RH (%) measurement step: 0%˜95%˜0%; RH (%) measurement step: 5%

The mark [6] stands for this setting: Week 2, 4, 6 and 8, Experimental groups 1 and 2.

Consider `CNCc1cn(S(=O)(=O)c2ccc(OC)nc2)c(-c2ccccc2F)c1OC` [Free base, 1-(5-(2-fluorophenyl)-4-methoxy-1-((6-methoxypyridin-3-yl)sulfonyl)-1H-pyrrol-3-yl)-N-methylmethanamine], for which, in data set [1] (60° C., Week 1), the “% Impurities” value worked out at 20.94%; the Assay % turned out to be 67.44%; the “Crystalline form (XRPD)” value was “Melted”; the HPLC peak RT 6.797 min, RRT 0.68 was 0.43%. Besides, in data set [1] (60° C., Week 1), the HPLC peak RT 7.563 min, RRT 0.75 is 1%; the HPLC peak RT 9.327 min, RRT 0.93 was determined as 0.18%; the HPLC peak RT 10.813 min, RRT 1.07 was determined as 0.57%; the “HPLC peak RT 7.423 min, RRT 0.74” value is on record as 18.86. Besides, in data set [1] (60° C., Week 1), the “HPLC peak RT 10.063 min, RRT 1.00” value was found to be 79.06 and the “HPLC peak RT 10.277 min, RRT 1.02” value is reported as 9.95. In data set [1] (60° C., Week 2), the “% Impurities” value was 35.00%; the Assay % is given as 60.29%; the “Crystalline form (XRPD)” value was “Melted”; the HPLC peak RT 6.797 min, RRT 0.68 was determined as 0.31%. In data set [1] (60° C., Week 2), the HPLC peak RT 7.563 min, RRT 0.75 amounted to 4.12%; the HPLC peak RT 9.327 min, RRT 0.93 came out at 0.14%; the HPLC peak RT 10.813 min, RRT 1.07 worked out at 0.53%; the “HPLC peak RT 7.423 min, RRT 0.74” value stood at 13.51. In data set [1] (60° C., Week 2), the “HPLC peak RT 10.063 min, RRT 1.00” value was found to be 65.0 and the “HPLC peak RT 10.277 min, RRT 1.02” value came to 16.38. For the same compound, the “Stability under harsh conditions (in words)” value in data set [1] (60° C.) was “high impurity content”. Also, in data set [1] (Day 0), the “% Impurities” value turned out to be 0.85%; the Assay % was determined as 100.00%; the “Crystalline form (XRPD)” value was “Free form”; the HPLC peak RT 9.327 min, RRT 0.93 worked out at 0.18%. Besides, in data set [1] (Day 0), the HPLC peak RT 10.813 min, RRT 1.07 was determined as 0.66% and the “HPLC peak RT 10.063 min, RRT 1.00” value is recorded as 99.15. For the same compound, the Solubility-24 h concentration in data set [2] (water, 37° C., 24 h) is 8630 µg/mL (≈ 21.3 mM).

Consider `CNCc1cn(S(=O)(=O)c2ccc(OC)nc2)c(-c2ccccc2F)c1OC.O=C(O)/C=C/C(=O)O` [Fumarate salt, fumarate salt of 1-(5-(2-fluorophenyl)-4-methoxy-1-((6-methoxypyridin-3-yl)sulfonyl)-1H-pyrrole-3-yl)-N-methylmethanamine], for which, in data set [3] (120° C., listed as Example 3), the “TGA weight loss (% w/w)” value is given as ~0.0307%,. Moreover, the “Polymorphic change vs initial XRPD of crystalline Form I” value in data set [4] (8 weeks) is recorded as “no polymorphic change”. The “Whether or not XRPD value changed” value is “Same” in data set [4] (Experimental group 1 (vial with a wide mouth), Week 2); “Same” in data set [4] (Experimental group 1 (vial with a wide mouth), Week 2 (second line so printed, r7)); “Same” in data set [4] (Experimental group 1 (vial with a wide mouth), Week 6); “Same” in data set [4] (Experimental group 1 (vial with a wide mouth), Week 8); “Same” in data set [4] (Experimental group 2 (vial double-packed with polyethylene bag), Week 2); “Same” in data set [4] (Experimental group 2 (vial double-packed with polyethylene bag), Week 2 (second line so printed, r7)). The “Whether or not XRPD value changed” value was “Same” in data set [4] (Experimental group 2 (vial double-packed with polyethylene bag), Week 6) and “Same” in data set [4] (Experimental group 2 (vial double-packed with polyethylene bag), Week 8). Besides, the “Hygroscopicity (TGA analysis, in words)” value in data set [4] (setting [6]) is “significantly low hygroscopicity”. For the same compound, the “Purity (HPLC analysis, in words)” value in data set [4] (setting [6]) is “high purity”. For the same compound, the “% Impurities” value in data set [1] (60° C., Week 1) is recorded as 0.76%; in data set [1] (60° C., Week 2), 0.80%; in data set [1] (Day 0), 0.77%. Moreover, the Assay % in data set [1] (60° C., Week 1) is reported as 105.69%; in data set [1] (60° C., Week 2), 94.74%; in data set [1] (Day 0), 100.00%. Besides, the “Crystalline form (XRPD)” value in data set [1] (60° C., Week 1) is reported as “Crystalline”; in data set [1] (60° C., Week 2), “Crystalline”; in data set [1] (Day 0) it was “Crystalline”. In addition, the HPLC peak RT 9.327 min, RRT 0.93 in data set [1] (60° C., Week 1) was found to be 0.17%; in data set [1] (60° C., Week 2) it was 0.18%; in data set [1] (Day 0), 0.17%. Also, the HPLC peak RT 10.813 min, RRT 1.07 in data set [1] (60° C., Week 1) was found to be 0.59%; in data set [1] (60° C., Week 2) it was 0.62%; in data set [1] (Day 0) it was 0.6%. The “HPLC peak RT 10.063 min, RRT 1.00” value in data set [1] (60° C., Week 1) came to 99.24; in data set [1] (60° C., Week 2), 99.20; in data set [1] (Day 0), 99.23. Further, in data set [1] (60° C.), the “Stability under harsh conditions (in words)” value was “excellent stability”. Moreover, the “Solubility (in words)” value in data set [2] (all of SGF, FaSSIF, and FeSSIF) is on record as “excellent solubility”; in data set [2] (fasted state simulated intestinal fluid (FaSSIF)) it was “very good solubility”. Further, the solubility at 1 h is over 10000 µg/mL in data set [2] (simulated gastric fluid, SGF, 37° C.); 7910 µg/mL in data set [2] (FaSSIF, 37° C.); 4500 µg/mL in data set [2] (FeSSIF, 37° C.); 6390 µg/mL in data set [2] (water, 37° C.). In addition, the solubility at 24 h in data set [2] (simulated gastric fluid, SGF, 37° C., 24 h) is over 10000 µg/mL; in data set [2] (FaSSIF, 37° C., 24 h) it was 7580 µg/mL; in data set [2] (FeSSIF, 37° C., 24 h), 4440 µg/mL; in data set [2] (water, 37° C., 24 h), 5320 µg/mL. For the same compound, the “Hygroscopicity (DVS, in words)” value in data set [5] is “very low hygroscopicity”.

As for `CNCc1cn(S(=O)(=O)c2ccc(OC)nc2)c(-c2ccccc2F)c1OC.O=P(O)(O)O` [phosphate salt, Phosphate Salt of 1-(5-(2-fluorophenyl)-4-methoxy-1-((6-methoxypyridin-3-yl)sulfonyl)-1H-pyrrol-3-yl)-N-methylmethanamine], in data set [3], the “Hygroscopicity (from TGA, in words)” value is given as “high hygroscopicity” and the TGA weight loss is recorded as 1.0189%.
